The NIST ThermoML archive (doi:10.1021/je900852t)
Numbers after ± are expanded uncertainties.

Conditions: Crystal; visual observation

SMILES: c1ccc2cc3ccccc3cc2c1 [anthracene]
- Normal melting temperature: 215 ± 1 °C
